Tested on: JE
Experiment: JE chemokine level in plasma of treated mice by ELISA
Format: in vivo
Conditions: bolus protein, each of three doses
Protocol: FIG. 7 illustrates induction levels of IP-10 (A) and JE (B) following i.v. or i.m. injection of murine IFN-β protein. C57BL/6 mice were administered 15, 150, or 500 ng of purified recombinant mIFN-β protein (specific activity=2.0×10^8 units/mg) by either i.v. (via tail vein) or i.m. injection (n=3 mice per group). The mice were bled at 2, 4, 6, 12, 24, and 48 hours post-injection, and the plasma levels of IP-10 and JE were measured by ELISA (R&D Systems).
FIG. 19 illustrates IP-10 and JE induction with a pBRES mIFN-β regulated expression system of the present invention.
• A. Development of mIFN-β Biomarkers: For higher sensitivity in detection of murine IFN-β (mIFN-β) activity in vivo, biomarkers for mIFN-β activity were identified in mice after injection of mIFN-β protein or mIFN-β encoded gene therapy vectors. […] In the present study, the expression of the MxA mouse homologue, Mx1, (see e.g., Hug, H et al. Mol Cell Biol 8: 3065-79; Pavlovic, J (1993) Ciba Found Symp 176: 233-43) isolated from murine peripheral blood monocytes (PBMC's) was used to detect the presence of biologically active mIFN-β. • A quantitative PCR/RT-PCR assay was developed to quantitate the levels of Mx1 mRNA in murine PBMC's. […] The samples were analyzed with an Mx1-specific probe/primer combination. […] The highest Mx1 expression levels were measured 2 hours after injection. […]

“mIFN-β: purified recombinant murine interferon-beta protein” was tested, and the “time by which plasma JE dropped to background” value was ≤ 24 h.

Source: patent US20080076729A1, “Interferon-beta gene therapy using an improved, regulated expression system” (Schering Aktiengesellachaft, priority 2005, published 2008)
